Molecular target: ROCK2 (Homo sapiens (Human), UniProt O75116)
Assay: ROCK2 kinase inhibition assay (FITC peptide substrate, LABCHIP 3000 Reader)
Type: biochemical
Conditions: 5 μM ATP, 1.5 μM peptide substrate
Method in brief: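 IC50 derived by curve fitting of dose-response inhibition, read as separation of phosphorylated from unphosphorylated FITC peptide (1.5 μM) after EDTA stop. Buffer: HEPES pH 7.5, MgCl2, Brij-35, DTT; ATP 5 μM; final DMSO <2%; reaction initiated by Rho kinase addition.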

Chain of ROCK2 (O75116 whole entry, species assumed): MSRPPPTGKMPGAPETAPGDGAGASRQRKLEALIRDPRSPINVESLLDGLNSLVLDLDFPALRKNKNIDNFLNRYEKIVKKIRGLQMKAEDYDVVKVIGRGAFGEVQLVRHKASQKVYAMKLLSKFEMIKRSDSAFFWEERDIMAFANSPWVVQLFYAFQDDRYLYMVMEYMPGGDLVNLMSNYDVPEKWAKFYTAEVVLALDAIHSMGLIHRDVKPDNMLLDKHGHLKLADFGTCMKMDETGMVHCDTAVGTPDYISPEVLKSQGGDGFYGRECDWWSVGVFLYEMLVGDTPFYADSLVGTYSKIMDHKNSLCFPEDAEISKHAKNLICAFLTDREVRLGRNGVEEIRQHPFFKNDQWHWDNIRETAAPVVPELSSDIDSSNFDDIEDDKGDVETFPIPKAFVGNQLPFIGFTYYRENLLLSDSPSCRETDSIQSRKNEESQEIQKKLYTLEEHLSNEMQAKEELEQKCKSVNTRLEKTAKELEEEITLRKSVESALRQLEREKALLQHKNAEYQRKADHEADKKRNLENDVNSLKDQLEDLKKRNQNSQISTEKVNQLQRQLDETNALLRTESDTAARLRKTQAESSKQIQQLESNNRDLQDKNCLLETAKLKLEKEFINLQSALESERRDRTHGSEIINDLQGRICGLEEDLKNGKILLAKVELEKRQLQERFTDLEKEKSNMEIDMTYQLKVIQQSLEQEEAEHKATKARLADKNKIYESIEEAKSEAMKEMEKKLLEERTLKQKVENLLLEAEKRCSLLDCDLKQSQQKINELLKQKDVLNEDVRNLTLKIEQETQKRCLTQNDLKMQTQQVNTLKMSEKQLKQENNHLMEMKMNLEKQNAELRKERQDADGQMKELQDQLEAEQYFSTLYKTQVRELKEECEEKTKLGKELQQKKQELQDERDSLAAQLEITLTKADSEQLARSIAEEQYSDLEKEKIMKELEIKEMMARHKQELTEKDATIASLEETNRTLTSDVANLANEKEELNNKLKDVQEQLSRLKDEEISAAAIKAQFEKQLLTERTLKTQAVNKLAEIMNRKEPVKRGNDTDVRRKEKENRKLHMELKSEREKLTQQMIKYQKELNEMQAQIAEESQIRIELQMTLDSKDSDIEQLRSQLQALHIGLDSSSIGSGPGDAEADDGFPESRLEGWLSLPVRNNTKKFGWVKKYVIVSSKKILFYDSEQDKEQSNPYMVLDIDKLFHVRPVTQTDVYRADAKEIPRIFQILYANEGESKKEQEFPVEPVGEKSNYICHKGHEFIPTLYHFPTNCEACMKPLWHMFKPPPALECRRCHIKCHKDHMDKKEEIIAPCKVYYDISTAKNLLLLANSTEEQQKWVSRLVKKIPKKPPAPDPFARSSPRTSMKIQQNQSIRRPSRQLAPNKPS

Row | Structure (SMILES) | IC50 [nM]
1 | CC(=O)N1CCC2(CC1)CN(c1ccc(-c3cn[nH]c3)cc1)C(=O)N2Cc1ccc(F)cc1F [Example 81, 3-(4-(1H-pyrazol-4-yl)phenyl)-8-acetyl-1-(2,4-difluorobenzyl)-1,3,8-triazaspiro[4.5]decan-2-one] | 30 to 250
2 | CCN(C)C(=O)c1cccc(CN2C(=O)N(c3ccc(-c4cn[nH]c4)cc3)CC23CCOCC3)c1 [Example 41, 3-((3-(4-(1H-pyrazol-4-yl)phenyl)-2-oxo-8-oxa-1,3-diazaspiro[4.5]decan-1-yl)methyl)-N-ethyl-N-methylbenzamide] | 30 to 250
3 | CCc1nc(N2CC3(CCN(C(=O)C(F)F)CC3)N(Cc3cccc(OC)c3)C2=O)ccc1-c1cn[nH]c1 [Example 183, 8-(2,2-difluoroacetyl)-3-(6-ethyl-5-(1H-pyrazol-4-yl)pyridin-2-yl)-1-(3-methoxybenzyl)-1,3,8-triazaspiro[4.5]decan-2-one] | < 3
4 | COc1cccc(CN2C(=O)N(c3ccc(-c4cn[nH]c4)cc3)CC23CC3)c1 [Example 1, 6-(4-(1H-pyrazol-4-yl)phenyl)-4-(3-methoxybenzyl)-4,6-diazaspiro[2.4]heptan-5-one] | < 3
5 | COc1nc(N2CC3(CCN(CC(C)(C)O)CC3)N(Cc3cccc(F)c3C)C2=O)ccc1-c1cn[nH]c1 [Example 167, 1-(3-fluoro-2-methylbenzyl)-8-(2-hydroxy-2-methylpropyl)-3-(6-methoxy-5-(1H-pyrazol-4-yl)pyridin-2-yl)-1,3,8-triazaspiro[4.5]decan-2-one] | < 3
6 | COc1cccc(CN2C(=O)N(c3ccc(-c4cn[nH]c4)cc3)CC23CCN(CCC(C)C)CC3)c1 [Example 117, 3-(4-(1H-pyrazol-4-yl)phenyl)-8-isopentyl-1-(3-methoxybenzyl)-1,3,8-triazaspiro[4.5]decan-2-one] | < 3
7 | CCc1nc(N2CC3(CCN(C(=O)CO)CC3)N(Cc3cc(F)cc(OC)c3)C2=O)ccc1-c1cn[nH]c1 [Example 186, 3-(6-ethyl-5-(1H-pyrazol-4-yl)pyridin-2-yl)-1-(3-fluoro-5-methoxybenzyl)-8-(2-hydroxyacetyl)-1,3,8-triazaspiro[4.5]decan-2-one] | < 3
8 | CC(=O)N1CCC2(CC1)CN(c1ccc(-c3cn[nH]c3)cc1)C(=O)N2Cc1cccc(F)c1C [Example 82, 3-(4-(1H-pyrazol-4-yl)phenyl)-8-acetyl-1-(3-fluoro-2-methylbenzyl)-1,3,8-triazaspiro[4.5]decan-2-one] | 3 to 30
9 | COc1cccc(CN2C(=O)N(c3ccc(-c4cn[nH]c4)cn3)CC23CCN(C(C)=O)CC3)c1 [Example 84, 3-(5-(1H-pyrazol-4-yl)pyridin-2-yl)-8-acetyl-1-(3-methoxybenzyl)-1,3,8-triazaspiro[4.5]decan-2-one] | < 3
10 | COCCN1CCC2(CC1)CN(c1ccc(-c3cn[nH]c3)cc1)C(=O)N2Cc1cccc(OC)c1 [Example 142, 3-(4-(1H-pyrazol-4-yl)phenyl)-1-(3-methoxybenzyl)-8-(2-methoxyethyl)-1,3,8-triazaspiro[4.5]decan-2-one] | 3 to 30
11 | CCc1nc(N2CC3(CCN(CC(C)(C)O)CC3)N(Cc3cccc(OC)c3)C2=O)ccc1-c1cn[nH]c1 [Example 152, 3-(6-ethyl-5-(1H-pyrazol-4-yl)pyridin-2-yl)-8-(2-hydroxy-2-methylpropyl)-1-(3-methoxybenzyl)-1,3,8-triazaspiro[4.5]decan-2-one] | < 3
12 | COc1cccc(CN2C(=O)N(c3ccc(-c4cn[nH]c4)cc3)CC23CCN(C(=O)c2ccc4cc[nH]c4c2)CC3)c1 [Example 179, 3-(4-(1H-pyrazol-4-yl)phenyl)-8-(1H-indole-6-carbonyl)-1-(3-methoxybenzyl)-1,3,8-triazaspiro[4.5]decan-2-one] | 3 to 30
13 | COc1cccc(CN2C(=O)N(c3ncc(-c4cn[nH]c4)c(OC)n3)CC23CCN(C(C)=O)CC3)c1 [Example 90, 8-acetyl-3-(4-methoxy-5-(1H-pyrazol-4-yl)pyrimidin-2-yl)-1-(3-methoxybenzyl)-1,3,8-triazaspiro[4.5]decan-2-one] | 3 to 30
14 | COc1cccc(CN2C(=O)N(c3ccc(-c4cn[nH]c4)cc3)CC23CCN(CCc2ccccc2)CC3)c1 [Example 125, 3-(4-(1H-pyrazol-4-yl)phenyl)-1-(3-methoxybenzyl)-8-phenethyl-1,3,8-triazaspiro[4.5]decan-2-one] | 3 to 30

Next, values leading:

Row | IC50 [nM] | Structure (SMILES)
15 | 3 to 30 | CCc1nc(N2CC3(CCN(C(=O)C(C)(C)O)CC3)N(Cc3cccc(OC)c3)C2=O)ccc1-c1cn[nH]c1 [Example 205, 3-(6-ethyl-5-(1H-pyrazol-4-yl)pyridin-2-yl)-8-(2-hydroxy-2-methylpropanoyl)-1-(3-methoxybenzyl)-1,3,8-triazaspiro[4.5]decan-2-one]
16 | 250 to 3000 | COc1cccc(NC2C(=O)N(c3ccc(-c4cn[nH]c4)cn3)CC23CCN(C(=O)Cc2csc(C)n2)CC3)c1 (centres unmarked) [Example 257, 2-(5-(1H-pyrazol-4-yl)pyridin-2-yl)-4-((3-methoxy-phenyl)amino)-8-(2-(2-methyl-thiazol-4-yl)acetyl)-2,8-diazaspiro [4.5]decan-3-one]
17 | 250 to 3000 | COc1cccc(NC2C(=O)N(c3ccc(-c4cn[nH]c4)cc3)CC23CN(CC(F)F)C3)c1 (centres unmarked) [Example 247, 6-(4-(1H-pyrazol-4-yl)phenyl)-2-(2,2-difluoroethyl)-8-((3-methoxy-phenyl)amino)-2,6-diazaspiro [3.4]octan-7-one]
18 | < 3 | COc1cccc(CN2C(=O)N(c3ccc(-c4cn[nH]c4)c(OC)n3)CC23CCN(C2COC2)CC3)c1 [Example 238, 3-(6-methoxy-5-(1H-pyrazol-4-yl)pyridin-2-yl)-1-(3-methoxy-benzyl)-8-(oxetan-3-yl)-1,3,8-triazaspiro [4.5]decan-2-one]
19 | < 3 | CCc1nc(N2CC3(CCN(C(=O)[C@H]4CC4(F)F)CC3)N(Cc3cccc(OC)c3)C2=O)ccc1-c1cn[nH]c1 [Example 217, (R)-8-(2,2-difluorocyclopropane-carbonyl)-3-(6-ethyl-5-(1H-pyrazol-4-yl)pyridin-2-yl)-1-(3-methoxybenzyl)-1,3,8-triazaspiro[4.5]decan-2-one]
20 | 250 to 3000 | COC(=O)N1CC2(C1)CN(c1ccc(-c3cn[nH]c3)cc1)C(=O)C2Nc1cccc(OC)c1 (centres unmarked) [Example 248, methyl 6-(4-(1H-pyrazol-4-yl)phenyl)-8-((3-methoxy-phenyl)amino)-7-oxo-2,6-diazaspiro [3.4]octane-2-carboxylate]
21 | 250 to 3000 | COc1ccc(CCC(=O)N2CCC3(CC2)CN(c2ccc(-c4cn[nH]c4)cn2)C(=O)C3Nc2cccc(OC)c2)cc1 (centres unmarked) [Example 255, -(5-(1H-pyrazol-4-yl)pyridin-2-yl)-4-((3-methoxy-phenyl)amino)-8-(3-(4-methoxy-phenyl)propanoyl)-2,8-diazaspiro [4.5]decan-3-one]
22 | 3 to 30 | COc1cccc(CN2C(=O)N(c3ccc(-c4cn[nH]c4)cn3)CC23CCN(C(=O)C(C)(C)O)CC3)c1 [Example 199, 3-(5-(1H-pyrazol-4-yl)pyridin-2-yl)-8-(2-hydroxy-2-methylpropanoyl)-1-(3-methoxybenzyl)-1,3,8-triazaspiro[4.5]decan-2-one]
23 | < 3 | COc1cccc(CN2C(=O)N(c3ccc(-c4cn[nH]c4)c(OC)n3)CC23CCN(C(=O)C2COC2)CC3)c1 [Example 223, 3-(6-methoxy-5-(1H-pyrazol-4-yl)pyridin-2-yl)-1-(3-methoxybenzyl)-8-(oxetane-3-carbonyl)-1,3,8-triazaspiro[4.5]decan-2-one]
